Like-named read-outs stand apart in the source and are kept apart here.

This assay has as its system MCH receptors. The assay can be described thus: MCH receptor activity class (method not given).
The mark [1] stands for this setting: class by percent of control at 10^-7 M or IC50.
The mark [2] stands for this setting: activity class 1-3: percent of control at 10^-7 M or IC50.
The mark [3] stands for this setting: MCH receptor, class by percent of control at 10^-7 M or IC50.
Setting [4] is: class 1-3 by percent of control at 10^-7 M or IC50.
Where [5] appears, read: class by percent of control at 10^−7 M or IC50.
Where [6] appears, read: MCH receptor activity class 1-3 (percent of control at 10^-7 M or IC50).

For `CCc1ccc(CNC[C@H]2CC[C@@H](Nc3nc4c(c(N(C)C)n3)CCCC4)CC2)s1` [compound 1399], the class under setting [1] is 3 (Class 3 The value of percent of control at 10^−7 M was more than 60% or the value of IC50 was more than 200 nM.).

Consider `CN(C)c1nc(N[C@H]2CC[C@@H](NC(=O)Oc3cccc(C(F)(F)F)c3)CC2)nc2c1CCCC2` [compound 1582], for which the class under setting [2] was 3 (Class 3 The value of percent of control at 10^−7 M was more than 60% or the value of IC50 was more than 200 nM.).

With `CN(C)c1nc(N[C@H]2CC[C@@H](NC(=O)Nc3ccccc3F)CC2)nc2c1CCCC2` [compound 1828], the class under setting [1] is listed as 3 (Class 3 The value of percent of control at 10^−7 M was more than 60% or the value of IC50 was more than 200 nM.).

Regarding `COc1cc(OC)cc(C(=O)N[C@H]2CC[C@@H](Nc3cc(C)c4ccccc4n3)CC2)c1` [Example 2553, 3,5-dimethoxy-N-{cis-4-[(4-methylquinolin-2-yl)amino]cyclohexyl}benzamide], the class is 1.

Turning to `C/C(=C\c1ccccc1)C(=O)NC[C@H]1CC[C@@H](Nc2cc(N(C)C)c3ccccc3n2)CC1` [compound 214], the class under setting [3] was 3 (Class 3 The value of percent of control at 10^−7 M was more than 60% or the value of IC50 was more than 200 nM.).

For `COc1cccc2cc(C(=O)N[C@H]3CC[C@@H](Nc4cc(N(C)C)c5ccccc5n4)CC3)oc12` [compound 782], under setting [1], the class is 3 (Class 3 The value of percent of control at 10^−7 M was more than 60% or the value of IC50 was more than 200 nM.).

As to `CN(C)c1ccnc(N[C@H]2CC[C@@H](NC(=O)c3scc(S(C)(=O)=O)c3Cl)CC2)n1` [compound 903], the class under setting [1] is 3 (Class 3 The value of percent of control at 10^−7 M was more than 60% or the value of IC50 was more than 200 nM.).

On to `CN(C)c1nc(N[C@H]2CC[C@@H](NC(=O)c3ccc(I)cc3)CC2)nc2c1CCCC2` [compound 477], for which the class under setting [4] is 3 (Class 3 The value of percent of control at 10^−7 M was more than 60% or the value of IC50 was more than 200 nM.).

As to `CN(C)c1ccnc(N[C@H]2CC[C@@H](CNCCCC#Cc3ccccc3)CC2)n1` [compound 1530], the class under setting [2] was 3 (Class 3 The value of percent of control at 10^−7 M was more than 60% or the value of IC50 was more than 200 nM.).

For the compound `Cc1cccc(C(C)C)c1NC(=O)N[C@H]1CC[C@@H](Nc2nccc(N(C)C)n2)CC1` [compound 2199], under setting [1], the class is 3 (Class 3 The value of percent of control at 10^−7 M was more than 60% or the value of IC50 was more than 200 nM.).

Consider `CN(C)c1cccc(C(=O)N[C@H]2CC[C@@H](Nc3nccc(N(C)C)n3)CC2)c1` [compound 844], for which the class under setting [1] was 2 (Class 2: The value of percent of control at 10^−7 M was from 40% to 60% or the value of IC′50 was from 50 nM to 200 nM.).

For `CN(C)c1nc(N[C@H]2CC[C@@H](CNC(=O)Nc3ccc(F)c(F)c3)CC2)nc2c1CCCC2` [compound 2494], the class under setting [1] is on record as 3 (Class 3 The value of percent of control at 10^−7 M was more than 60% or the value of IC50 was more than 200 nM.).

For the compound `Cc1nc(N[C@H]2CC[C@@H](NCc3ccc(F)c(F)c3)CC2)nc(N(C)C)c1C` [compound 2866], the class under setting [5] is 2 (Class 2: The value of percent of control at 10^−7 M was from 40% to 60% or the value of IC′50 was from 50 nM to 200 nM.).

As to `Cc1ccc(Cl)c(C(=O)NC[C@H]2CC[C@@H](Nc3nccc(N(C)C)n3)CC2)c1F` [compound 453], under setting [4], the class is given as 3 (Class 3 The value of percent of control at 10^−7 M was more than 60% or the value of IC50 was more than 200 nM.).

On to `CC1=C(CC(=O)N[C@H]2CC[C@@H](Nc3nccc(N(C)C)n3)CC2)c2cc(F)ccc2/C1=C/c1ccc([S+](C)[O-])cc1` (relative stereo) [compound 883, N-(cis-4-{[4-(dimethylamino)pyrimidin-2-yl]amino}cyclohexyl)-2-{(1E)-5-fluoro-2-methyl-1-[4-(methylsulfinyl)benzylidene]-1H-inden-3-yl}acetamide], for which the class under setting [1] is recorded as 2 (Class 2: The value of percent of control at 10^−7 M was from 40% to 60% or the value of IC′50 was from 50 nM to 200 nM.).

Take `CCOC(=O)[C@H](CC(C)C)NC(=O)N[C@H]1CC[C@@H](Nc2cc(N(C)C)c3ccccc3n2)CC1` (relative stereo) [compound 2093]: the class under setting [1] is on record as 3 (Class 3 The value of percent of control at 10^−7 M was more than 60% or the value of IC50 was more than 200 nM.).

With `CN(C)c1cc(N[C@H]2CC[C@@H](NC(=O)CCC(=O)c3ccc(F)cc3)CC2)nc2ccccc12` [compound 707], the class under setting [1] was 3 (Class 3 The value of percent of control at 10^−7 M was more than 60% or the value of IC50 was more than 200 nM.).

With `CN(C)c1cc(N[C@H]2CC[C@@H](NC(=O)Nc3ccc4c(c3)OCO4)CC2)nc2ccccc12` [compound 2148], the class under setting [1] is on record as 3 (Class 3 The value of percent of control at 10^−7 M was more than 60% or the value of IC50 was more than 200 nM.).

With `CN(C)c1cc(N[C@H]2CC[C@@H](CNC(=O)/C=C/c3ccccc3)CC2)nc2ccccc12` [compound 153], the class under setting [3] is 3 (Class 3 The value of percent of control at 10^−7 M was more than 60% or the value of IC50 was more than 200 nM.).

Take `CN(C)c1ccnc(N[C@H]2CC[C@@H](NC(=O)CCc3ccccc3O)CC2)n1` [compound 818]: the class under setting [1] is 3 (Class 3 The value of percent of control at 10^−7 M was more than 60% or the value of IC50 was more than 200 nM.).

With `CC(=O)c1ccc(NC(=O)N[C@H]2CC[C@@H](Nc3nc4c(c(N(C)C)n3)CCCC4)CC2)cc1` [compound 1808], the class under setting [1] was 3 (Class 3 The value of percent of control at 10^−7 M was more than 60% or the value of IC50 was more than 200 nM.).

Regarding `CN(C)c1cc(N[C@H]2CC[C@@H](CNC(=O)c3cc(F)cc(C(F)(F)F)c3)CC2)nc2ccccc12` [compound 165], the class under setting [3] is recorded as 3 (Class 3 The value of percent of control at 10^−7 M was more than 60% or the value of IC50 was more than 200 nM.).

For `Cc1ccc(C(=O)N[C@H]2CC[C@@H](Nc3ncc(C)c(N(C)C)n3)CC2)cc1` [compound 2939, N-(cis-4-{[4-(dimethylamino)-5-methylpyrimidin-2-yl]amino}cyclohexyl)-4-methylbenzamide], under setting [5], the class is 1 (Class 1: The value of percent of control at 10^−7 M was less than 40% or the value of IC50 was less than 50 nM.).

For `CN(C)c1cc(N[C@H]2CC[C@@H](NC(=S)Nc3ccc(N(C)C)c4ccccc34)CC2)nc2ccccc12` [compound 2177, N-[4-(dimethylamino)-1-naphthyl]-N′-(cis-4-{[4-(dimethylamino)quinolin-2-yl]amino}cyclohexyl)thiourea], the class under setting [1] is on record as 2 (Class 2: The value of percent of control at 10^−7 M was from 40% to 60% or the value of IC′50 was from 50 nM to 200 nM.).

Turning to `Cc1nc(N[C@H]2CC[C@@H](NC(=O)c3ccc(Cl)cc3)CC2)nc(N(C)C)c1C` [compound 2847, 4-chloro-N-(cis-4-{[4-(dimethylamino)-5,6-dimethylpyrimidin-2-yl]amino}cyclohexyl)benzamide], the class under setting [5] was 1 (Class 1: The value of percent of control at 10^−7 M was less than 40% or the value of IC50 was less than 50 nM.).

Consider `C[C@@H](c1ccccc1)N(C(=O)c1ccccc1C(=O)N[C@H]1CC[C@@H](Nc2cc(N(C)C)c3ccccc3n2)CC1)[C@@H](C)c1ccccc1` [compound 739], for which the class under setting [1] was 3 (Class 3 The value of percent of control at 10^−7 M was more than 60% or the value of IC50 was more than 200 nM.).

In the case of `Cc1cc(N(C)C)nc(NC[C@H]2CC[C@@H](NC(=O)c3ccc(Cl)c(Cl)c3)CC2)n1` [compound 2749], under setting [5], the class is given as 2 (Class 2: The value of percent of control at 10^−7 M was from 40% to 60% or the value of IC′50 was from 50 nM to 200 nM.).

On to `Cc1cc(N(C)C)nc(NC[C@H]2CC[C@@H](NC(=O)c3ccc(F)c(C)c3)CC2)n1` [compound 2738], for which the class under setting [5] was 3 (Class 3 The value of percent of control at 10^−7 M was more than 60% or the value of IC50 was more than 200 nM.).

Take `CN(C)c1nc(N[C@H]2CC[C@@H](CNC(=O)c3cc(F)cc(F)c3)CC2)nc2c1CCCC2` [compound 596]: the class under setting [4] is listed as 3 (Class 3 The value of percent of control at 10^−7 M was more than 60% or the value of IC50 was more than 200 nM.).

Regarding `Cc1cnc(N[C@H]2CC[C@@H](NCc3ccc(F)c(F)c3)CC2)nc1N(C)C` [compound 2997], under setting [5], the class is on record as 3 (Class 3 The value of percent of control at 10^−7 M was more than 60% or the value of IC50 was more than 200 nM.).

For the compound `Cc1ccc(NC(=O)NC[C@H]2CC[C@@H](Nc3cc(N(C)C)c4ccccc4n3)CC2)cc1` [compound 2395], the class under setting [6] was 3 (Class 3 The value of percent of control at 10^−7 M was more than 60% or the value of IC50 was more than 200 nM.).

For `CCOc1ccccc1NC(=O)N[C@H]1CC[C@@H](Nc2nc3c(c(N(C)C)n2)CCCC3)CC1` [compound 1712], the class under setting [1] was 2 (Class 2: The value of percent of control at 10^−7 M was from 40% to 60% or the value of IC′50 was from 50 nM to 200 nM.).

As to `COc1ccc(CSC2(CC(=O)N[C@H]3CC[C@@H](Nc4cc(N(C)C)c5ccccc5n4)CC3)CCCCC2)cc1` [compound 714], under setting [1], the class was 3 (Class 3 The value of percent of control at 10^−7 M was more than 60% or the value of IC50 was more than 200 nM.).

For `COc1ccc(NC(=S)N[C@H]2CC[C@@H](Nc3cc(N(C)C)c4ccccc4n3)CC2)c(C)c1` [compound 2296], the class under setting [6] is on record as 3 (Class 3 The value of percent of control at 10^−7 M was more than 60% or the value of IC50 was more than 200 nM.).

For the compound `CN(C)c1nc(N[C@H]2CC[C@@H](NC(=S)Nc3ccccc3Cl)CC2)nc2c1CCCC2` [compound 1964], the class under setting [3] is reported as 3 (Class 3 The value of percent of control at 10^−7 M was more than 60% or the value of IC50 was more than 200 nM.).

Consider `Cc1cccc(C)c1NC(=O)NC[C@H]1CC[C@@H](Nc2nc3c(c(N(C)C)n2)CCCC3)CC1` [compound 2452], for which the class under setting [6] is recorded as 1 (Class 1: The value of percent of control at 10^−7 M was less than 40% or the value of IC50 was less than 50 nM.).

For the compound `CN(C)c1nc(N[C@H]2CC[C@@H](NC(=O)c3ccc(F)c(Cl)c3F)CC2)nc2c1CCCC2` [compound 498], the class under setting [4] is 3 (Class 3 The value of percent of control at 10^−7 M was more than 60% or the value of IC50 was more than 200 nM.).

The record behind these values is patent US20050197350A1, “Novel quinoline, tetrahydroquinazoline, and pyrimidine derivatives and methods of treatment related to the use thereof” (TAISHO PHARMACEUTICAL CO., LTD., priority 2003, published 2005).
